# Where a SMILES comes first, the peptide text is derived from it. Bridges are numbered along the chain shown (N, C = ends). [ ]: non-standard residue; d: D form. Phe(3,4,5-F3) = N[C@@H](Cc1cc(F)c(F)c(F)c1)C(=O)O; d(cisHyp) = O=C(O)[C@H]1C[C@@H](O)CN1; Hyp = O=C(O)[C@@H]1C[C@@H](O)CN1; NMeF = CN[C@@H](Cc1ccccc1)C(=O)O; NMehSer = CN[C@@H](CCO)C(=O)O; NMeNle = CCCC[C@H](NC)C(=O)O; hSer = N[C@@H](CCO)C(=O)O; NMeA = CN[C@@H](C)C(=O)O; Orn = NCCC[C@H](N)C(=O)O; dThz = O=C(O)[C@H]1CSCN1; Dab = NCC[C@H](N)C(=O)O; Dap = NC[C@H](N)C(=O)O
# Molecular target: T1, Human PD-L1/PD-1 (Homo sapiens, UniProt Q9NZQ7)
# T1 construct: TVMV protease cleavage site (C); made in house; host or cells: HEK293T cells
# T1 sequence (Q9NZQ7 with tags, fused parts or gaps): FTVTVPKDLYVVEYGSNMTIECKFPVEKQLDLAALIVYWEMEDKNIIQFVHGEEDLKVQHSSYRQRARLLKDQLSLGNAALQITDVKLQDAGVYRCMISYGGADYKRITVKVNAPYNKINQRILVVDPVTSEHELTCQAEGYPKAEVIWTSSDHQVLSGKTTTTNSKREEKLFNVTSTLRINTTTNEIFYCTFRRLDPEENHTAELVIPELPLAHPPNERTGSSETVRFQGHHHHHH
# Assay: HTRF Human PD-L1/PD-1 binding assay (PD-1-Ig/PD-L1-His)
# Conditions: PD-L1-His 10 nM, PD-1-Ig 20 nM; class symbol; read-out: HTRF Human PD-L1/PD-1 Binding Assay IC50 Range
# Method in brief: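 Compound preincubated 15 min with PD-L1-His (10 nM final), then PD-1-Ig (20 nM final) added for 15 min in dPBS with 0.1% BSA and 0.05% Tween-20. Detection by Eu-cryptate anti-Ig (1 nM) and APC anti-His (20 nM) after 30 min; 665/620 nm HTRF ratio. Proteins expressed in HEK293T.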
row,IC50,Compound
1,10 to 99.9 nM,CCCC[C@H]1C(=O)N[C@@H](CC(C)C)C(=O)N[C@H](C(=O)NCC(N)=O)CSCC(=O)N[C@@H](Cc2ccc(O)cc2)C(=O)N(C)[C@@H](C)C(=O)N[C@@H](CCN)C(=O)N2CCC[C@H]2C(=O)N[C@@H](Cc2c[nH]cn2)C(=O)N[C@@H](CCC(=O)O)C(=O)N2C[C@H](O)C[C@H]2C(=O)N[C@@H](Cc2c[nH]c3ccccc23)C(=O)N[C@@H](CO)C(=O)N[C@@H](Cc2c[nH]c3ccccc23)C(=O)N(C)[C@@H](CCOC)C(=O)N1C [Example 10140] ({CH2CO}-Y[NMeA][Dab]PHE[Hyp]WSW[NMehSer](Me)[NMeNle]LCG-NH2; thioether N-14)
2,10 to 99.9 nM,CCCC[C@H]1C(=O)N[C@@H](CCC(=O)O)C(=O)N[C@H](C(=O)NCC(N)=O)CSCC(=O)N[C@@H](Cc2ccc(O)cc2)C(=O)N(C)[C@@H](C)C(=O)N[C@@H](CC(N)=O)C(=O)N2CCC[C@H]2C(=O)N[C@@H](Cc2c[nH]cn2)C(=O)N[C@@H](CCC(N)=O)C(=O)N2C[C@H](O)C[C@H]2C(=O)N[C@@H](Cc2c[nH]c3ccccc23)C(=O)N[C@@H](CO)C(=O)N[C@@H](Cc2c[nH]c3ccccc23)C(=O)N(C)[C@@H](CCOC)C(=O)N1C [Example 10141] ({CH2CO}-Y[NMeA]NPHQ[Hyp]WSW[NMehSer](Me)[NMeNle]ECG-NH2; thioether N-14)
3,10 to 99.9 nM,CCCC[C@H]1C(=O)N(C)[C@@H](CCOC)C(=O)N[C@@H](CCC(=O)O)C(=O)N[C@H](C(=O)NCC(N)=O)CSCC(=O)N[C@@H](Cc2ccc(O)cc2)C(=O)N(C)[C@@H](C)C(=O)N[C@@H](CC(=O)O)C(=O)N2CCC[C@H]2C(=O)N[C@@H](Cc2c[nH]cn2)C(=O)N[C@@H](CCC(N)=O)C(=O)N2C[C@H](O)C[C@H]2C(=O)N[C@@H](Cc2c[nH]c3ccccc23)C(=O)N[C@@H](CO)C(=O)N[C@@H](Cc2c[nH]c3ccccc23)C(=O)N1C [Example 10142] ({CH2CO}-Y[NMeA]DPHQ[Hyp]WSW[NMeNle][NMehSer](Me)ECG-NH2; thioether N-14)
4,1 to 9.9 nM,CCCC[C@H]1C(=O)N(C)[C@@H](CCOC)C(=O)N[C@@H](CO)C(=O)N[C@H](C(=O)NCC(N)=O)CSCC(=O)N[C@@H](Cc2ccc(O)cc2)C(=O)N(C)[C@@H](C)C(=O)N[C@@H](CC(N)=O)C(=O)N2CCC[C@H]2C(=O)N[C@@H](Cc2c[nH]cn2)C(=O)N[C@@H](CCC(N)=O)C(=O)N2C[C@H](O)C[C@H]2C(=O)N[C@@H](Cc2c[nH]c3ccccc23)C(=O)N[C@@H](CO)C(=O)N[C@@H](Cc2c[nH]c3ccccc23)C(=O)N1C [Example 10144] ({CH2CO}-Y[NMeA]NPHQ[Hyp]WSW[NMeNle][NMehSer](Me)SCG-NH2; thioether N-14)
5,1 to 9.9 nM,CCCC[C@H]1C(=O)N(C)[C@@H](CCOC)C(=O)N[C@@H](CN)C(=O)N[C@H](C(=O)NCC(N)=O)CSCC(=O)N[C@@H](Cc2ccc(O)cc2)C(=O)N(C)[C@@H](C)C(=O)N[C@@H](CC(=O)O)C(=O)N2CCC[C@H]2C(=O)N[C@@H](Cc2c[nH]cn2)C(=O)N[C@@H](CCC(N)=O)C(=O)N2C[C@H](O)C[C@H]2C(=O)N[C@@H](Cc2c[nH]c3ccccc23)C(=O)N[C@@H](CO)C(=O)N[C@@H](Cc2c[nH]c3ccccc23)C(=O)N1C [Example 10145] ({CH2CO}-Y[NMeA]DPHQ[Hyp]WSW[NMeNle][NMehSer](Me)[Dap]CG-NH2; thioether N-14)
6,10 to 99.9 nM,CCCC[C@H]1C(=O)N(C)[C@@H](CCOC)C(=O)N[C@@H](CC(C)C)C(=O)N[C@H](C(=O)NCC(N)=O)CSCC(=O)N[C@@H](Cc2ccc(O)cc2)C(=O)N(C)[C@@H](C)C(=O)N[C@@H](CCN)C(=O)N2CCC[C@H]2C(=O)N[C@@H](Cc2c[nH]cn2)C(=O)N[C@@H](CCC(=O)O)C(=O)N2C[C@H](O)C[C@H]2C(=O)N[C@@H](Cc2c[nH]c3ccccc23)C(=O)N[C@@H](CO)C(=O)N[C@@H](Cc2c[nH]c3ccccc23)C(=O)N1C [Example 10146] ({CH2CO}-Y[NMeA][Dab]PHE[Hyp]WSW[NMeNle][NMehSer](Me)LCG-NH2; thioether N-14)
7,1 to 9.9 nM,CCCC[C@H]1C(=O)N(C)[C@@H](CCOC)C(=O)N[C@@H](CCC(=O)O)C(=O)N[C@H](C(=O)NCC(N)=O)CSCC(=O)N[C@@H](Cc2ccc(O)cc2)C(=O)N(C)[C@@H](C)C(=O)N[C@@H](CC(N)=O)C(=O)N2CCC[C@H]2C(=O)N[C@@H](Cc2c[nH]cn2)C(=O)N[C@@H](CCC(N)=O)C(=O)N2C[C@H](O)C[C@H]2C(=O)N[C@@H](Cc2c[nH]c3ccccc23)C(=O)N[C@@H](CO)C(=O)N[C@@H](Cc2c[nH]c3ccccc23)C(=O)N1C [Example 10147] ({CH2CO}-Y[NMeA]NPHQ[Hyp]WSW[NMeNle][NMehSer](Me)ECG-NH2; thioether N-14)
8,1 to 9.9 nM,"CCCC[C@H]1C(=O)N2C[C@H](O)C[C@@H]2C(=O)N[C@@H](CC(=O)O)C(=O)N[C@@H](C(C)C)C(=O)N(C)[C@@H](Cc2ccccc2)C(=O)N[C@@H](CCC(=O)O)C(=O)N2CSC[C@@H]2C(=O)N[C@@H](Cc2c[nH]c3ccccc23)C(=O)N[C@@H](Cc2ccc(O)cc2)C(=O)N[C@@H](CC(C)C)C(=O)N[C@H](C(=O)NCC(N)=O)CSCC(=O)N[C@@H](Cc2cc(F)c(F)c(F)c2)C(=O)N(C)[C@@H](Cc2ccccc2)C(=O)N1C [Example 10148] ({CH2CO}-[Phe(3,4,5-F3)][NMeF][NMeNle][d(cisHyp)]DV[NMeF]E[dThz]WYLCG-NH2; thioether N-13)"
9,1 to 9.9 nM,"CCCC[C@H]1C(=O)N2C[C@H](O)C[C@@H]2C(=O)N[C@@H](CC(=O)O)C(=O)N[C@@H](C(C)C)C(=O)N(C)[C@@H](Cc2ccccc2)C(=O)N[C@@H](CC(=O)O)C(=O)N2CSC[C@@H]2C(=O)N[C@@H](Cc2c[nH]c3ccccc23)C(=O)N[C@@H](Cc2ccc(O)cc2)C(=O)N[C@@H](CC(C)C)C(=O)N[C@H](C(=O)NCC(N)=O)CSCC(=O)N[C@@H](Cc2cc(F)c(F)c(F)c2)C(=O)N(C)[C@@H](Cc2ccccc2)C(=O)N1C [Example 10149] ({CH2CO}-[Phe(3,4,5-F3)][NMeF][NMeNle][d(cisHyp)]DV[NMeF]D[dThz]WYLCG-NH2; thioether N-13)"
10,1 to 9.9 nM,"CCCC[C@H]1C(=O)N2C[C@H](O)C[C@@H]2C(=O)N[C@@H](CC(=O)O)C(=O)N[C@@H](C(C)C)C(=O)N(C)[C@@H](Cc2ccccc2)C(=O)N[C@@H](CCC(=O)O)C(=O)N2CSC[C@@H]2C(=O)N[C@@H](Cc2c[nH]c3ccccc23)C(=O)N[C@@H](Cc2ccc(O)cc2)C(=O)N[C@@H](CCO)C(=O)N[C@H](C(=O)NCC(N)=O)CSCC(=O)N[C@@H](Cc2cc(F)c(F)c(F)c2)C(=O)N(C)[C@@H](Cc2ccccc2)C(=O)N1C [Example 10150] ({CH2CO}-[Phe(3,4,5-F3)][NMeF][NMeNle][d(cisHyp)]DV[NMeF]E[dThz]WY[hSer]CG-NH2; thioether N-13)"
11,1 to 9.9 nM,"CCCC[C@H]1C(=O)N2C[C@H](O)C[C@@H]2C(=O)N[C@@H](CC(=O)O)C(=O)N[C@@H](C(C)C)C(=O)N(C)[C@@H](Cc2ccccc2)C(=O)N[C@@H](CC(=O)O)C(=O)N2CSC[C@@H]2C(=O)N[C@@H](Cc2c[nH]c3ccccc23)C(=O)N[C@@H](Cc2ccc(O)cc2)C(=O)N[C@@H](CCO)C(=O)N[C@H](C(=O)NCC(N)=O)CSCC(=O)N[C@@H](Cc2cc(F)c(F)c(F)c2)C(=O)N(C)[C@@H](Cc2ccccc2)C(=O)N1C [Example 10151] ({CH2CO}-[Phe(3,4,5-F3)][NMeF][NMeNle][d(cisHyp)]DV[NMeF]D[dThz]WY[hSer]CG-NH2; thioether N-13)"
12,1 to 9.9 nM,"CCCC[C@H]1C(=O)N2C[C@H](O)C[C@@H]2C(=O)N[C@@H](CC(=O)O)C(=O)N[C@@H](C(C)C)C(=O)N(C)[C@@H](Cc2ccccc2)C(=O)N[C@@H](CCCN)C(=O)N2CCC[C@@H]2C(=O)N[C@@H](Cc2c[nH]c3ccccc23)C(=O)N[C@@H](Cc2ccc(O)cc2)C(=O)N[C@@H](CCO)C(=O)N[C@H](C(=O)NCC(N)=O)CSCC(=O)N[C@@H](Cc2cc(F)c(F)c(F)c2)C(=O)N(C)[C@@H](Cc2ccccc2)C(=O)N1C [Example 10152] ({CH2CO}-[Phe(3,4,5-F3)][NMeF][NMeNle][d(cisHyp)]DV[NMeF][Orn][dP]WY[hSer]CG-NH2; thioether N-13)"
13,1 to 9.9 nM,"CCCC[C@H]1C(=O)N2C[C@H](O)C[C@@H]2C(=O)N[C@@H](CC(=O)O)C(=O)N[C@@H](C(C)C)C(=O)N(C)[C@@H](Cc2ccccc2)C(=O)N[C@@H](Cc2ccc(O)cc2)C(=O)N2CCC[C@@H]2C(=O)N[C@@H](Cc2c[nH]c3ccccc23)C(=O)N[C@@H](Cc2ccc(O)cc2)C(=O)N[C@@H](CCO)C(=O)N[C@H](C(=O)NCC(N)=O)CSCC(=O)N[C@@H](Cc2cc(F)c(F)c(F)c2)C(=O)N(C)[C@@H](Cc2ccccc2)C(=O)N1C [Example 10153] ({CH2CO}-[Phe(3,4,5-F3)][NMeF][NMeNle][d(cisHyp)]DV[NMeF]Y[dP]WY[hSer]CG-NH2; thioether N-13)"
14,1 to 9.9 nM,"CCCC[C@H]1C(=O)N2C[C@H](O)C[C@@H]2C(=O)N[C@@H](CC(=O)O)C(=O)N[C@@H](C(C)C)C(=O)N(C)[C@@H](Cc2ccccc2)C(=O)N[C@@H](CCC(=O)O)C(=O)N2CCC[C@@H]2C(=O)N[C@@H](Cc2c[nH]c3ccccc23)C(=O)N[C@@H](Cc2ccc(O)cc2)C(=O)N[C@@H](CCO)C(=O)N[C@H](C(=O)NCC(N)=O)CSCC(=O)N[C@@H](Cc2cc(F)c(F)c(F)c2)C(=O)N(C)[C@@H](Cc2ccccc2)C(=O)N1C [Example 10154] ({CH2CO}-[Phe(3,4,5-F3)][NMeF][NMeNle][d(cisHyp)]DV[NMeF]E[dP]WY[hSer]CG-NH2; thioether N-13)"

# Same assay, conditions: PD-L1-His 10 nM, PD-1-Ig 20 nM; read-out: HTRF Human PD-L1/PD-1 Binding Assay IC50
row,IC50,Compound
1,10.9 nM,CCCC[C@H]1C(=O)N(C)[C@@H](CCOC)C(=O)N[C@@H](CC(C)C)C(=O)N[C@H](C(=O)NCC(N)=O)CSCC(=O)N[C@@H](Cc2ccc(O)cc2)C(=O)N(C)[C@@H](C)C(=O)N[C@@H](CC(N)=O)C(=O)N2CCC[C@H]2C(=O)N[C@@H](Cc2c[nH]cn2)C(=O)N[C@@H](CCC(N)=O)C(=O)N2C[C@H](O)C[C@H]2C(=O)N[C@@H](Cc2c[nH]c3ccccc23)C(=O)NCC(=O)N[C@@H](Cc2c[nH]c3ccccc23)C(=O)N1C [Example 10143] ({CH2CO}-Y[NMeA]NPHQ[Hyp]WGW[NMeNle][NMehSer](Me)LCG-NH2; thioether N-14)

# Reference: US10538555B2, “Macrocyclic inhibitors of the PD-1/PD-L1 and CD80(B7-1)/PD-L1 protein/protein interactions” (BRISTOL-MYERS SQUIBB COMPANY, priority 2014, dated 2020)
